Results reported in US10100078B2, “Nanoparticles, process for preparation and use thereof as carrier for amphipatic and hydrophobic molecules in fields of medicine including cancer treatment and food related compounds” (priority 2011, dated 2018).

How the values were obtained:
[1] = tested on: PC-3 prostate cancer cells; assay: FMCA cancer cell killing effect on PC-3 prostate cancer cells; type: cell-based, human; settings: PC-3, 3 days
Experimental: The human prostate adenocarcinoma, PC-3, cultured in a 50/50 mixture of HAM's F-12K and RPMI-1640. […] All media were supplemented with 10% heat-inactivated fetal calf serum (FCS), 2 mM glutamine, 100 μg/ml streptomycin and 100 IE/ml penicillin (all from Sigma Aldrich Co, St Louis, Mo., USA). All cell lines were incubated at 37° C. in humidified air containing 5% CO2.
The FMCA method is based on measurement of fluorescence generated from hydrolysis of fluorescein diacetate (FDA) to fluorescein by cells with intact plasma membranes. After above mentioned incubation for 3 days, the medium was removed by aspiration. […] The plates were incubated for 45 minutes and the generated fluorescence from each well was measured in a 96-well scanning fluorometer. The fluorescence is proportional to the number of intact cells in the well. Quality criteria for a successful analysis included a fluorescence signal in the control wells of more than five times of the mean blank value, a mean co-efficient of variation (CV) in the control wells of less than 30%.
The samples were 5-fold serially diluted in 6 steps starting from the concentration of 100 μg/ml, and incubated with PC-3 prostate cancer cells for 3 days. Then the cells were stained and read by the FMCA method.
PC-3 cells were exposed for 3 days at pre-determined concentrations of G3 and docetaxel separately and in combination as shown on the graph. […]

HL-60 AML cells = assay: FMCA cancer cell killing effect on HL-60 AML cells; type: cell-based, human; settings: HL-60, 3 days, pre-determined concentrations, alone or combined; FIG. 7
Experimental: All media were supplemented with 10% heat-inactivated fetal calf serum (FCS), 2 mM glutamine, 100 μg/ml streptomycin and 100 IE/ml penicillin (all from Sigma Aldrich Co, St Louis, Mo., USA). All cell lines were incubated at 37° C. in humidified air containing 5% CO2.
The FMCA method is based on measurement of fluorescence generated from hydrolysis of fluorescein diacetate (FDA) to fluorescein by cells with intact plasma membranes. After above mentioned incubation for 3 days, the medium was removed by aspiration. After one wash with PBS, 100 μl/well of FDA dissolved in a physiological buffer (10 μg/ml) was added. The plates were incubated for 45 minutes and the generated fluorescence from each well was measured in a 96-well scanning fluorometer. The fluorescence is proportional to the number of intact cells in the well. Quality criteria for a successful analysis included a fluorescence signal in the control wells of more than five times of the mean blank value, a mean co-efficient of variation (CV) in the control wells of less than 30%.
The samples were 5-fold serial diluted in 6 steps starting from 100 μg/ml, and incubated or 3 days with HL-60 AML cells f. Then the cells were stained and read by the FMCA method.
HL-60 AML cells were exposed for 3 days at pre-determined concentrations of G3 and cytarabine separately and in combination of these two as shown on FIG. 7. […]

[2] = Detection of vitamin D3 in the water phase (DiaSorin Liaison); type: physicochemical; settings: 50% cholesterol and 50% vitamin D3 membrane, assay has about one percent cross-reactivity with vitamin D3
Experimental: Samples with cholecalciferol (vitamin D3) incorporated in G3 particles were analysed at a University Hospital Laboratory on a Liaison automatic instrument. Although the assay (DiaSorin Liaison) is designed to measure 25-HO-D3 it has about one percent cross-reactivity with non-hydroxylated vitamin D3.
G3 particles were formed using 50% cholesterol and 50% vitamin D3 to form the lipid membrane. Quil A was added into the water phase to generate the G3 particles (for details, please refer to Example 1). 100% Cholesterol and 100% Vitamin D3 in water were used as the controls. Samples with vitamin D3 incorporated in G3 particles were analysed at the Uppsala University Hospital Laboratory on a DiaSorin Liaison automatic instrument.

CO[C@H]1C(=O)[C@]2(C)[C@@H](OC)C[C@H]3OC[C@@]3(OC(C)=O)[C@H]2[C@H](OC(=O)c2ccccc2)[C@]2(O)C[C@H](OC(=O)[C@H](O)[C@@H](NC(=O)OC(C)(C)C)c3ccccc3)C(C)=C1C2(C)C [Cabazitaxel, cabazitaxel]
IC50 ([1]; Homo sapiens, 72 h, cabazitaxel from 100 μM, alone or with G3 fixed 1 μM, FIG. 11): 25.5 µM

Nc1ccn([C@@H]2O[C@H](CO)[C@@H](O)[C@@H]2O)c(=O)n1 [cytarabine]
cells killed (HL-60 AML cells): 55%

CC(=O)O[C@@]12CO[C@@H]1C[C@H](O)[C@@]1(C)C(=O)[C@H](O)C3=C(C)[C@@H](OC(=O)[C@H](O)[C@@H](NC(=O)OC(C)(C)C)c4ccccc4)C[C@@](O)([C@@H](OC(=O)c4ccccc4)[C@H]21)C3(C)C [docetaxel]
cells killed ([1]; pre-determined concentrations, alone or combined, FIG. 10): 2%

C=C1CC[C@H](O)C/C1=C/C=C1\CCC[C@]2(C)[C@@H]([C@H](C)CCCC(C)C)CC[C@@H]12 [vitamin D3 control, cholecalciferol]
vitamin D3 detected [2]: only trace amount
